According to the supplement of paper PMC10307832:

Key:
Test in all cases: relative viability (nuclei count vs DMSO), 5 days (fraction); higher = more cells survive
[1] = compound: C1=CC=C(C(=C1)C2=CC=C(C=C2)C3=CSC4=C3C(=C(C(=O)N4)C#N)O)O
How it was run: (§1)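 Lung cancer cell lines in 1536-well plates were kept overnight at 37 °C, then pinned with five library-drug doses (not always all listed) spaced by √10 on vehicle-anchored plates. After 5 days without medium change, cells were fixed, permeabilised and Hoechst-stained in one step, imaged at 4×, and nuclei were counted with MetaXpress. Viability is treated-well nuclei divided by vehicle-well nuclei, taken as the median over plates. Plates passed only with control CV below 25% and at least one doubling.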

[2] = compound: O=C(CCCCCCNC(=O)c1cnc(N(c2ccccc2)c2ccccc2)nc1)NO [Ricolinostat]
How it was run: as §1

[3] = compound: CC1=CN2C(=O)C=C(N=C2C(=C1)C(C)NC3=CC=CC=C3)N4CCOCC4 [TGX 221]
How it was run: as §1

[4] = compound: CC1=CN2C(=O)C=C(N=C2C(=C1)C(C)NC3=CC=CC=C3)N4CCOCC4 [TGX 221] + Cc1nc(Nc2ncc(C(=O)Nc3c(C)cccc3Cl)s2)cc(N2CCN(CCO)CC2)n1 [Dasatinib] (partner 0.075 µM)
How it was run: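 Nuclei were stained with Hoechst during a one-step fixation (final 0.05% Triton X-100, 1% formaldehyde, 1 ug/ml Hoechst) carried out 5 days after dosing, then counted on 4× images. The cells, lung cancer lines in 1536-well plates, had been dosed by pin tool the day after seeding with one drug alone or a fixed anchor-drug dose plus five library-drug doses (not always all listed) in √10 steps. Relative viability is the nuclei count in treated wells divided by that in vehicle wells, and each value is the median of duplicate plates.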

Row | Cell Line | relative viability ([1]; 0.08 µM) | relative viability ([1]; 0.253 µM) | relative viability ([1]; 0.8 µM) | relative viability ([1]; 2.53 µM) | relative viability ([1]; 8 µM) | relative viability ([2]; 0.08 µM) | relative viability ([2]; 0.253 µM) | relative viability ([2]; 0.8 µM) | relative viability ([2]; 2.53 µM) | relative viability ([3]; 0.08 µM) | relative viability ([3]; 0.253 µM) | relative viability ([3]; 0.8 µM) | relative viability ([3]; 2.53 µM) | relative viability ([3]; 8 µM) | relative viability ([4]; first compound 0.08 µM) | relative viability ([4]; first compound 0.253 µM) | relative viability ([4]; first compound 0.8 µM) | relative viability ([4]; first compound 2.53 µM) | relative viability ([4]; first compound 8 µM)
1 | EPLC-272H | 0.688 | 0.773 | 0.926 | 1 | 0.788 | 0.673 | 0.942 | 0.719 | 0.577 | 0.911 | 0.837 | 1.02 | 0.727 | 0.978 | 0.392 | 0.29 | 0.351 | 0.302 | 0.287
2 | NCI-H2087 | 1.02 | 1.21 | 1.08 | 1.05 | 0.637 | 0.912 | 1.02 | 0.974 | 0.699 | 1.19 | 1.15 | 1.12 | 1 | 0.988 | 1.02 | 0.75 | 0.646 | 0.9 | 0.993
3 | A-427 | 0.913 | 1.02 | 1.05 | 1.04 | 1 | 0.714 | 1.01 | 0.908 | 0.849 | 0.949 | 0.91 | 0.971 | 0.893 | 1 | 0.696 | 0.735 | 0.671 | 0.657 | 0.692
4 | NCI-H460 | 0.963 | 1.05 | 1.02 | 1.06 | 0.742 | 0.95 | 0.968 | 0.96 | 0.989 | 0.968 | 0.96 | 0.977 | 0.945 | 0.925 | 0.478 | 0.477 | 0.526 | 0.539 | 0.432
5 | EBC-1 | 1.04 | 1.14 | 0.975 | 1.15 | 0.768 | 0.808 | 0.886 | 0.895 | 0.449 | 0.952 | 1.03 | 0.976 | 0.891 | 0.736 | – | – | – | – | –
6 | NCI-H23 | 0.948 | 1.03 | 1.07 | 0.978 | 0.805 | 0.779 | 1.03 | 0.851 | 0.895 | 0.993 | 0.861 | 0.909 | 0.825 | 0.932 | 0.784 | 0.745 | 0.823 | 0.742 | 0.586
7 | NCI-H1437 | 0.935 | 1.11 | 0.994 | 1.14 | 0.891 | 0.951 | 0.993 | 0.969 | 0.763 | 1.02 | 0.942 | 0.998 | 0.983 | 0.929 | 0.408 | 0.427 | 0.517 | 0.323 | 0.356
8 | EKVX | 0.961 | 1.13 | 0.971 | 0.967 | 0.851 | 0.764 | 0.918 | 0.907 | 0.964 | 0.865 | 0.888 | 0.907 | 0.838 | 0.855 | 0.399 | 0.523 | 0.432 | 0.493 | 0.365
9 | NCI-H1299 | 1.09 | 1.07 | 1.01 | 1.06 | 0.897 | 0.997 | 0.983 | 0.982 | 0.954 | 0.98 | 1.01 | 1.01 | 1.06 | 0.993 | – | – | – | – | –
10 | NCI-H1650 | 0.727 | 1.29 | 0.913 | 0.93 | 0.612 | 0.774 | 0.884 | 0.789 | 0.678 | 0.979 | 0.816 | 0.862 | 0.859 | 0.705 | 0.236 | 0.29 | 0.28 | 0.323 | 0.242
11 | HARA | 0.768 | 1.98 | 0.999 | 0.751 | 0.856 | 0.878 | 1 | 0.866 | 0.567 | 0.997 | 0.947 | 0.964 | 0.942 | 1.05 | 0.207 | 0.254 | 0.289 | 0.26 | 0.315
12 | ChaGo-K-1 | 0.785 | 1.08 | 1.01 | 1.01 | 0.809 | 0.936 | 1 | 0.921 | 0.832 | 0.904 | 0.938 | 0.987 | 0.958 | 1.04 | 0.548 | 0.536 | 0.615 | 0.494 | 0.575
13 | HCC-366 | 0.829 | 1.08 | 1.07 | 1.01 | 0.638 | 0.984 | 1.03 | 1.03 | 0.769 | 0.942 | 0.999 | 1.03 | 0.957 | 1.01 | 0.693 | 0.606 | 0.639 | 0.586 | 0.55
14 | NCI-H1703 | 0.929 | 0.965 | 0.902 | 0.892 | 0.789 | – | 1.01 | 0.928 | 1 | 0.892 | 0.785 | 0.776 | 0.672 | 0.634 | – | – | – | – | –
15 | NCI-H1648 | 0.644 | 0.68 | 0.755 | 0.794 | 0.739 | 0.719 | 1.04 | 0.745 | 0.792 | 0.736 | 0.656 | 0.974 | 0.686 | 0.873 | – | – | – | – | –
16 | Calu-6 | 1.01 | 1.11 | 1.02 | 1.08 | 0.899 | 0.957 | 0.994 | 0.981 | 0.895 | 1.03 | 0.929 | 1.02 | 0.923 | 0.957 | – | – | – | – | –
17 | A549 | 0.908 | 1.19 | 1.02 | 0.977 | 0.675 | 0.792 | 0.945 | 0.926 | 0.971 | 0.954 | 0.884 | 0.953 | 0.927 | 0.867 | – | – | – | – | –
18 | HCC-44 | 1.03 | 1 | 0.997 | 0.956 | 0.991 | 1.01 | 0.966 | 0.962 | 0.77 | 0.991 | 1.03 | 1.03 | 0.99 | 1.03 | – | – | – | – | –
19 | IA-LM | 0.725 | 1.45 | 1.04 | 1.15 | 0.655 | 0.657 | 0.924 | 0.797 | 0.777 | 0.883 | 0.96 | 1.07 | 0.981 | 0.966 | – | – | – | – | –
